This is an account of results in patent US7022681B2, “Partial and full agonists of A1 adenosine receptors” (CV Therapeutics, Inc., priority 2002, dated 2006).

The subject of data set [1] is awake rats. In words: Antilipolytic properties: NEFA concentration in awake rats. The class given is in vivo, rat. The note with it: oral administration. The text has this: • Animals. Male Sprague-Dawley rats (380–420 g) were purchased from Simonsen Laboratories (Gilroy, Calif.). All animals received humane care according to the guidelines set forth in The Principles of Laboratory Animal Care formulated by the National Society for Medical Research and the Guide for the Care and Use of Laboratory Animals prepared by the Institute of Laboratory Animal Resources and published by the National Institute of Health (NIH Publication 86-23, revised 1996). • Isolation of Rat Epididymal Adipocytes. Adipocytes were isolated from the epididymal fat pads of rats as described previously (Rodbell, 1964). Briefly, rats were anesthetized using methoxyfluorane and killed by exsanguination. Epididymal fat tissue was removed and placed into a modified Krebs (KRH) solution containing NaCl (100 mM), KCl (4.7 mM), CaCl2 (2.5 mM), NaHCO3 (3.6 mM), MgSO4 (1.19 mM), KH2PO4 (1.18 mM), dextrose (5 mM), pyruvic acid (5 mM), ascorbic acid (1 mM), and HEPES (5 mM), pH 7.4. Visible blood vessels were dissected and excised, and the adipose tissue was minced. Minced tissue was digested with 25 ml of fresh KRH solution containing type I collagenase (1 mg/ml), fatty-acid free BSA [1% (wt/vol)] and nicotinic acid (2_M, to inhibit lipolysis) for 40 to 60 minutes at 37° C. with continuous gentle shaking. The cell suspension was filtered through a nylon-mesh (210_m) to remove undigested tissue fragments. The cell filtrate was washed three times using KRH solution containing 1% fatty acid-free BSA at 37° C. The final adipocyte suspension was either diluted in fresh KRH solution with 1% fatty acid-free BSA for use in cAMP experiments, or used to prepare membranes for radioligand binding assays. • cAMP Assays in Isolated Rat Adipocytes. Aliquots (100 μl, 45,000–90,000 cells) of the freshly prepared adipocyte cell suspension were placed into wells of 24-well cell culture plates containing 0.4 ml of KRH solution containing fatty acid-free BSA (1%), ascorbic acid (1 mM), rolipram (10 μM), cilostamide (1 μM), adenosine deaminase (2 U/ml), and appropriate A1 adenosine receptor agonist(s). An aliquot of 0.5 ml of KRH solution containing 60 nM isoproterenol was added to each well, and incubations proceeded for 4 min in an orbital shaker bath maintained at 37° C. Assays were terminated by the addition of 200 μl of 300 mM HCl to each well to lyse the cells. The concentration of cAMP in the cell lysate was determined using colorimetric direct cAMP kits (Assay Designs, Inc., Ann Arbor, Mich.). Adipocyte Membrane Preparation and Competition Binding • Assays. Freshly isolated adipocytes were added to a chilled solution containing sucrose (0.25 M), EDTA (1 mM), and Tris-HCl (10 mM, pH 7.4) and homogenized with 10 strokes using a motordriven tissue grinder. The homogenate was cooled on ice and the fat layer was discarded. The homogenate was then centrifuged at 500 g for 10 min at 4° C. The supernatant under the fat layer was removed, resuspended in fresh buffer, and homogenized a second time with six strokes using the tissue grinder. Cell membranes were collected by centrifugation of the homogenate at 15,000 g for 15 min. The final membrane pellet was resuspended in a solution containing sucrose (0.25 M), phenylmethylsulfonyl fluoride (0.1 mM), leupeptin (5 μg/ml), aprotinin ([…]), adenosine deaminase (2 U/ml), and Tris-HCl (10 mM) buffer, pH 7.4. The membrane suspension was frozen and stored in liquid nitrogen. For competition binding assays, membrane suspensions were thawed and incubated for 2 hours at room temperature in Tris-HCl (50 mM) buffer containing ADA (1 U/ml), guanosine 5-(imido)triphosphate ([…]), and [3H]CPX (1–3nM) and progressively higher concentrations of the competing agent. At the end of incubation, free radioligand was separated from membrane-bound radioligand by filtration through GF/C glass fiber filters (Whatman, Maidstone, UK) using a tissue harvester (Brandel, Inc., Gaithersburg, Md.). Radioactivity was quantified by liquid scintillation counting. […]

The test system of data set [2] is awake rats. Put plainly: Heart rate in awake rats (telemetry). It is filed as in vivo, rat. The note with it: dose levels of 1 mg/kg, 2.5 mg/kg, and 5 mg/kg. How it is done: Heart rate was measured from rats chronically instrumented with telemetry transmitters. For transmitter implantation, a midline laparotomy was performed on anesthetized rats and a transmitter for ECG recording was sutured to the abdominal wall. The two electrocardiographic leads were tunneled through the wall, passed subcutaneously (one to the left shoulder, the other to the right thigh), and secured in place with sutures. Heart rates of awake rats were measured using a Dataquest ART Gold System (Data Sciences International, St. Paul, Minn.). Cardiac electrical activity was recorded for 10-s periods and used to calculate heart rate in beats per minute. After recording of a baseline heart rate, either vehicle (0.9% DMSO in saline, 0.5 ml) or a compound of Formula I was injected into the intraperitoneal cavity of each rat, and heart rate was monitored at intervals for an additional 3 hours.
The effects of a compound of Formula I on heart rate and serum NEFA reduction concentration were determined in separate groups of rats to avoid the effects of animal handling and blood sampling on heart rate. Three days before an experiment, a catheter ([…] outer diameter) was implanted in the left common carotid artery of each rat using aseptic conditions and sterile technique. […] Serum NEFA concentration was determined using an enzymatic colorimetric assay kit (Wako Chemicals, Richmond, Va.).

The next data set has as its system seizures induced by DMCM. The conditions noted are these: experimental models of epilepsy; cited from earlier work.
The target of a further data set is A1 receptor (Cavia porcellus, UniProt P47745). The note with it: chronic administration for 7 days, guinea pigs; cited from earlier work.
Chain of A1 receptor (P47745 whole entry): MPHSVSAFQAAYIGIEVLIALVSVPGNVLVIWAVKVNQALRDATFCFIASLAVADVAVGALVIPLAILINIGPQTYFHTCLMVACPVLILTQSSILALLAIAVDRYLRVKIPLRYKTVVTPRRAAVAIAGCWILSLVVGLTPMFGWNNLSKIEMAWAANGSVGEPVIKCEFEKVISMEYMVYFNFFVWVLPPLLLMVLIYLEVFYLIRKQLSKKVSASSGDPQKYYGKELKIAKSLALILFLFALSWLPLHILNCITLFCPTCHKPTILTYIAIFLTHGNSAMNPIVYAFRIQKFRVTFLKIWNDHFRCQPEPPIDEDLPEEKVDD

`O[C@@H]1[C@H](O)[C@@H](C#Cc2ccccc2F)O[C@H]1n1cnc2c(NC3CCCC3)ncnc21` [(4S,2R,3R,5R)-2-[6-(cyclopentylamino)purin-9-yl]-5-{2-[2-fluorophenyl]-ethynyl}oxolane-3,4-diol]: in the data set with awake rats [1] (1 mg/Kg), the “initial reduction of non-esterified free fatty acid (NEFA)” value came out at 40%, the “time in which plasma levels of NEFA returned to normal” value turned out to be 2 h and the “time the NEFA reduction was maintained” value was determined as 1 h. Further, in the data set on awake rats [1] (2.5 mg/Kg), the “initial reduction of non-esterified free fatty acid (NEFA)” value came to 60%, the “time in which plasma levels of NEFA returned to normal” value amounted to 4 h and the “time the NEFA reduction was maintained” value was found to be 1.5 h. In addition, in the data set with awake rats [2], the “effect on heart rate” value was “no effect on heart rate was observed”.
Consider `Cc1ccccc1CNc1ncnc2c1ncn2[C@@H]1O[C@H](CO)[C@@H](O)[C@H]1O` [metrifudil], for which the “anticonvulsant activity against seizures induced by DMCM” value in the data set with seizures induced by DMCM was “potent anticonvulsant”.
For `C[C@H](Cc1ccccc1)Nc1ncnc2c1ncn2[C@@H]1O[C@H](CO)[C@@H](O)[C@H]1O` [R-PIA, R-N6-phenylisopropyladenosine], the “desensitization in terms of the dromotropic response” value on A1 receptor is on record as “desensitization of the A1 receptor”.
